In brackets after ≈: the same amount, converted by molar mass.
Experiments:
Trichophyton benhamiae = experiment: Antifungal activity against Trichophyton mentagrophytes by broth micro-dilution technique; format: functional, Arthroderma benhamiae
Aspergillus fumigatus = experiment: Antifungal activity against Aspergillus fumigatus by broth micro-dilution technique; format: functional
Candida parapsilosis = experiment: Antifungal activity against Candida parapsilosis ATCC 22019 by broth micro-dilution technique; format: functional; details: Lodderomyces parapsilosis
Enterococcus faecalis = experiment: Antibacterial activity against Streptococcus faecalis by broth micro-dilution technique; format: functional
Klebsiella pneumoniae = experiment: Antibacterial activity against Klebsiella pneumoniae by broth micro-dilution technique; format: functional
Escherichia coli = experiment: Antibacterial activity against Escherichia coli by broth micro-dilution technique; format: functional
Pseudomonas aeruginosa = experiment: Antibacterial activity against Pseudomonas aeruginosa by broth micro-dilution technique; format: functional
Staphylococcus aureus = experiment: Antibacterial activity against Staphylococcus aureus by broth micro-dilution technique; format: functional
Candida albicans = experiment: Antifungal activity against Candida albicans by broth micro-dilution technique; format: functional
Cryptococcus neoformans = experiment: Antifungal activity against Cryptococcus neoformans by broth micro-dilution technique; format: functional
Sporothrix schenckii = experiment: Antifungal activity against Sporothrix schenckii by broth micro-dilution technique; format: functional

Structure (SMILES) | MIC (Trichophyton benhamiae) [µg/mL] | MIC (Aspergillus fumigatus) [µg/mL] | MIC (Candida parapsilosis) [µg/mL] | MIC (Enterococcus faecalis) [µg/mL] | MIC (Klebsiella pneumoniae) [µg/mL] | MIC (Escherichia coli) [µg/mL] | MIC (Pseudomonas aeruginosa) [µg/mL] | MIC (Staphylococcus aureus) [µg/mL] | MIC (Candida albicans) [µg/mL] | MIC (Cryptococcus neoformans) [µg/mL] | MIC (Sporothrix schenckii) [µg/mL]
O=c1cc(-c2ccc(O)c(O)c2)oc2cc(O)cc(O)c12 [LUTEOLIN] | 50 (≈ 175 µM) | > 50 | 25 (≈ 87.3 µM) | 25 (≈ 87.3 µM) | 25 (≈ 87.3 µM) | 50 (≈ 175 µM) | 25 (≈ 87.3 µM) | 25 (≈ 87.3 µM) | > 50 | 25 (≈ 87.3 µM) | > 50
COC(=O)[C@H]1O[C@@H](Oc2cc(-c3cc(=O)c4c(O)cc(O)cc4o3)ccc2O)[C@H](O)[C@@H](O)[C@@H]1O | 6.25 (≈ 13.1 µM) | > 50 | > 50 | > 50 | > 50 | > 50 | > 50 | > 50 | > 50 | 6.25 (≈ 13.1 µM) | > 50
C[C@]1(O)CC[C@@H]2C(C(=O)O)=CO[C@@H](O[C@H]3O[C@@H](CO)[C@H](O)[C@@H](O)[C@@H]3OC(=O)c3ccc(O)cc3)[C@@H]21 | 6.25 (≈ 12.6 µM) | 50 (≈ 101 µM) | > 50 | > 50 | 25 (≈ 50.4 µM) | 25 (≈ 50.4 µM) | 25 (≈ 50.4 µM) | 50 (≈ 101 µM) | > 50 | 6.25 (≈ 12.6 µM) | > 50
OC(Cn1cncn1)(Cn1cncn1)c1ccc(F)cc1F [FLUCONAZOLE] | 2 (≈ 6.53 µM) | 2 (≈ 6.53 µM) | 1 (≈ 3.27 µM) |  |  |  |  |  | 0.5 (≈ 1.63 µM) | 1 (≈ 3.27 µM) | 2 (≈ 6.53 µM)
COc1ccc(-c2oc3cc(OC)c(OC)c(O)c3c(=O)c2OC)cc1OC [ARTEMETIN] | 25 (≈ 64.4 µM) | 50 (≈ 129 µM) | 25 (≈ 64.4 µM) | > 50 | 25 (≈ 64.4 µM) | 50 (≈ 129 µM) | 50 (≈ 129 µM) | 25 (≈ 64.4 µM) | > 50 | 12.5 (≈ 32.2 µM) | > 50
O=c1cc(-c2ccc(O)c(O)c2)oc2cc(O)c([C@@H]3O[C@H](CO)[C@@H](O)[C@H](O)[C@H]3O)c(O)c12 [ISOORIENTIN] | 12.5 (≈ 27.9 µM) | 50 (≈ 112 µM) | > 50 | 25 (≈ 55.8 µM) | 25 (≈ 55.8 µM) | 25 (≈ 55.8 µM) | > 50 | 25 (≈ 55.8 µM) | > 50 | 25 (≈ 55.8 µM) | > 50
O=C(OCC1=C[C@@H](O)[C@@H]2C=CO[C@@H](O[C@H]3O[C@@H](CO)[C@H](O)[C@@H](O)[C@@H]3O)[C@H]12)c1ccc(O)cc1 | 12.5 (≈ 26.8 µM) | > 50 | > 50 | > 50 | 50 (≈ 107 µM) | > 50 | > 50 | > 50 | > 50 | 12.5 (≈ 26.8 µM) | > 50
CC1(C)S[C@@H]2[C@H](NC(=O)[C@H](N)c3ccccc3)C(=O)N2[C@H]1C(=O)O [AMPICILLIN] |  |  |  | 0.02 (≈ 0.0572 µM) | 0.09 (≈ 0.258 µM) |  | 50 (≈ 143 µM) | 0.09 (≈ 0.258 µM) |  |  | 
